Laboratory results published in PubChem BioAssay AID2060602 (Molecular Pharmacology Branch, DTP, NCI, 2025).

Test system: 648629-189-R-J1-PDC complex spheroids viability
Experiment: Anticancer human tumor 648629-189-R-J1-PDC patient-derived bladder carcinoma cell line growth inhibition [CLK]
Conditions: for IC50: curve of first compound; for viability, T/C: stronger effect = lower value
Excerpt: A high-throughput screen of multi-cell type tumor spheroids was designed to identify active combinations of […] and targeted small molecules. Complex spheroids include a stromal component modeled by human endothelial cells (HUVEC) and fibroblasts modeled by human mesenchymal stem cells (MSCs). The concentration ranges selected for each drug and investigational agent were based upon clinically achievable concentrations if the clinical Cmax of the agent was known.
Compounds. The drugs and investigational agents: cirtuvivint (SM08502; NSC835563), CC-671 (NSC850746), vemurafenib (NSC761431), tapotoclax (NSC804041), sotorasib (NSC818433), adagrasib (NSC831453), MRTX-1133 (NSC836407), BAY2416964 (NSC825713), copanlisib (NSC816437), inavolisib (NSC800729), abemaciclib (NSC768073), osimertinib (NSC779217), entinostat (NSC756642), eltanexor (KPT-8602, NSC794443), venetoclax (NSC766270), ceralasertib (NSC777638), bortezomib (NSC756655), olaparib (NSC753686), talazoparib (NSC767125), alisertib (NSC759677), peposertib (NSC802822), gemcitabine (NSC613327), 5-fluorouracil (NSC19893), SN-38 (NSC673596), oxaliplatin (NSC266046), paclitaxel (NSC125973), and doxorubicin (NSC123127), were obtained from the National Cancer Institute (NCI) Developmental Therapeutics Program Chemical Repository. The FDA-approved anticancer drug set is available from the Developmental Therapeutics Program at https://dtp.cancer.gov/organization/dscb/obtaining/available plates.htm. […] The stock solutions were prepared in dimethyl sulfoxide (DMSO, Sigma-Aldrich, St. Louis, MO, cat. D2650), except for the platinum complexes which were prepared in saline (Quality Biological, Gaithersburg, MD, cat. 114-055-101), at 800-fold the tested concentration and stored at -70 degrees C prior to their use. All drugs and investigational agents were tested over a range starting from a high concentration at or near the clinical Cmax and decreasing in half-log increments. If the clinical Cmax for an agent had not been determined, the highest concentration tested was 10 microM.
Cell Culture. All cells were maintained in an incubator at 37 degrees C and 5% CO2 with 95% humidity. The PDC lines were cultured according to standard operating procedures established by the NCI PDMR. Briefly, all PDCs were thawed and cultured in Matrigel-coated flasks prepared with a working solution of 1X Ham's F-12 nutrient mix, without supplementation (Invitrogen, Waltham, MA, cat. 11765054), 100 U/mL penicillin-streptomycin (Invitrogen, cat. 15140122), and 2.5% Matrigel (Corning Inc., Corning, NY, cat. 354248) for the first three passages. The 947758-054-R-J2-PDC line was cultured in 6B/Colon 1A media, which includes advanced DMEM/F-12 (Thermo Fisher Scientific, cat. 12634028), 10 mM HEPES (Thermo Fisher Scientific, cat. 15630080), 1X GlutaMAX supplement (Thermo Fisher Scientific, cat. 35050061), 0.1 mg/mL primocin (InvivoGen, cat. ant-pm-2), 10% defined fetal bovine serum, heat inactivated (HyClone Laboratories Inc., cat. SH30070.03HI), 1.25 mM N-Acetyl-L-cysteine (Sigma-Aldrich, cat. A9165), 10 mM nicotinamide (Sigma-Aldrich, cat. N0636), 1X B-27 supplement (Thermo Fisher Scientific, cat. 17504044), 1X N-2 supplement (Thermo Fisher Scientific, cat. 17502048), and 10 microM Y-27632 dihydrochloride (Tocris Bioscience, cat. 1254). The 876862-298-R-J1-PDC was cultured in 6E media, which includes all 6B/Colon 1A media components plus 50% L-WRN conditioned media (ATCC, cat. CRL-3276), 50 ng/mL recombinant human EGF recombinant protein (hEGF; Thermo Fisher Scientific, cat. PHG0311), 10 ng/mL recombinant human fibroblast growth factor 10 (hGFG-10; PeproTech, cat. 100-26), 1 ng/mL recombinant human fibroblast growth factor 2 (hFGF-2; PeproTech, cat. 100-18B), and 1 µM prostaglandin E2 (PGE2; Tocris, cat. 2296). The 227483-062-R1-J1-PDC line was cultured in Panc media, containing all 6E components except hFGF-2, with the addition of 500 nM SB-431542 (Selleckchem, cat. S1067) and 10 nM gastrin (Tocris, cat. 3006). […]

[1] = second compound 0.0316 µM, first compound 0.0316 µM
[2] = second compound 0.0316 µM, first compound 0.1 µM
[3] = second compound 0.0316 µM, first compound 0.316 µM
[4] = second compound 0.0316 µM, first compound 1 µM
[5] = second compound 0.0316 µM, first compound 3.16 µM
[6] = second compound 0.0316 µM, first compound 10 µM
[7] = second compound 0.1 µM, first compound 0.0316 µM
[8] = second compound 0.1 µM, first compound 0.1 µM
[9] = second compound 0.1 µM, first compound 0.316 µM
[10] = second compound 0.1 µM, first compound 1 µM
[11] = second compound 0.1 µM, first compound 3.16 µM
[12] = second compound 0.1 µM, first compound 10 µM
[13] = second compound 0.316 µM, first compound 0.0316 µM
[14] = second compound 0.316 µM, first compound 0.1 µM
[15] = second compound 0.316 µM, first compound 0.316 µM
[16] = second compound 0.316 µM, first compound 1 µM
[17] = second compound 0.316 µM, first compound 3.16 µM
[18] = second compound 0.316 µM, first compound 10 µM
[19] = second compound 1 µM, first compound 0.0316 µM
[20] = second compound 1 µM, first compound 0.1 µM
[21] = second compound 1 µM, first compound 0.316 µM
[22] = second compound 1 µM, first compound 1 µM
[23] = second compound 1 µM, first compound 3.16 µM
[24] = second compound 1 µM, first compound 10 µM
[25] = second compound 3.16 µM, first compound 0.0316 µM
[26] = second compound 3.16 µM, first compound 0.1 µM
[27] = second compound 3.16 µM, first compound 0.316 µM
[28] = second compound 3.16 µM, first compound 1 µM
[29] = second compound 3.16 µM, first compound 3.16 µM
[30] = second compound 3.16 µM, first compound 10 µM
[31] = second compound 10 µM, first compound 0.0316 µM
[32] = second compound 10 µM, first compound 0.1 µM
[33] = second compound 10 µM, first compound 0.316 µM
[34] = second compound 10 µM, first compound 1 µM
[35] = second compound 10 µM, first compound 3.16 µM
[36] = second compound 10 µM, first compound 10 µM
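Throughout, for viability, T/C: drug exposure lasted seven days before viability readout; 100% = DMSO vehicle control wells.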

Q: Which results are given for `CCCS(=O)(=O)Nc1ccc(F)c(C(=O)c2c[nH]c3ncc(-c4ccc(Cl)cc4)cc23)c1F` + CN1CCN(c2cc(C(=O)Nc3cc4cc(-c5cnn(C)c5)ccc4cn3)ccn2)CC1?
A: IC50 (second compound 0.0316 µM): 7050 nM; IC50 (second compound 0.1 µM): 7250 nM; IC50 (second compound 0.316 µM): < 31.6 nM; IC50 (second compound 1 µM): < 31.6 nM; IC50 (second compound 3.16 µM): < 31.6 nM; IC50 (second compound 10 µM): < 31.6 nM; viability, T/C [1]: 115%; viability, T/C [2]: 104%; viability, T/C [3]: 116%; viability, T/C [4]: 110%; viability, T/C [5]: 126%; viability, T/C [6]: 21.8%; viability, T/C [7]: 110%; viability, T/C [8]: 118%; viability, T/C [9]: 105%; viability, T/C [10]: 98.7%; viability, T/C [11]: 104%; viability, T/C [12]: 28.9%; viability, T/C [13]: 37.6%; viability, T/C [14]: 57.9%; viability, T/C [15]: 55.4%; viability, T/C [16]: 46.8%; viability, T/C [17]: 44.1%; viability, T/C [18]: 7.7%; viability, T/C [19]: 0.47%; viability, T/C [20]: 0.46%; viability, T/C [21]: 0.3%; viability, T/C [22]: 0.39%; viability, T/C [23]: 0.22%; viability, T/C [24]: 0.86%; viability, T/C [25]: 0.11%; viability, T/C [26]: 0.67%; viability, T/C [27]: 0.13%; viability, T/C [28]: 0.13%; viability, T/C [29]: 0.14%; viability, T/C [30]: 0.52%; viability, T/C [31]: 0.11%; viability, T/C [32]: 0.13%; viability, T/C [33]: 0.14%; viability, T/C [34]: 0.16%; viability, T/C [35]: 0.15%; viability, T/C [36]: 0.25%

Q: What does the source list for `COC1C=CCC(C)C(C)S(=O)(=O)NC(=O)c2ccc3c(c2)N(CC2CCC21)CC1(CCCc2cc(Cl)ccc21)CO3` (centres undefined) + CN1CCN(c2cc(C(=O)Nc3cc4cc(-c5cnn(C)c5)ccc4cn3)ccn2)CC1?
A: IC50 (second compound 0.0316 µM): 2090 nM; IC50 (second compound 0.1 µM): 2100 nM; IC50 (second compound 0.316 µM): < 31.6 nM; IC50 (second compound 1 µM): < 31.6 nM; IC50 (second compound 3.16 µM): < 31.6 nM; IC50 (second compound 10 µM): < 31.6 nM; viability, T/C [1]: 106%; viability, T/C [2]: 99.9%; viability, T/C [3]: 93.2%; viability, T/C [4]: 82%; viability, T/C [5]: 32.4%; viability, T/C [6]: 3.21%; viability, T/C [7]: 114%; viability, T/C [8]: 94.4%; viability, T/C [9]: 92.4%; viability, T/C [10]: 80.1%; viability, T/C [11]: 33.3%; viability, T/C [12]: 3.02%; viability, T/C [13]: 50.2%; viability, T/C [14]: 46.9%; viability, T/C [15]: 37.9%; viability, T/C [16]: 14.4%; viability, T/C [17]: 4.72%; viability, T/C [18]: 1.78%; viability, T/C [19]: 0.38%; viability, T/C [20]: 0.34%; viability, T/C [21]: 0.42%; viability, T/C [22]: 0.15%; viability, T/C [23]: 0.13%; viability, T/C [24]: 0.08%; viability, T/C [25]: 0.13%; viability, T/C [26]: 0.12%; viability, T/C [27]: 0.16%; viability, T/C [28]: 0.14%; viability, T/C [29]: 0.43%; viability, T/C [30]: 0.12%; viability, T/C [31]: 0.17%; viability, T/C [32]: 0.13%; viability, T/C [33]: 0.2%; viability, T/C [34]: 0.21%; viability, T/C [35]: 0.24%; viability, T/C [36]: 0.51%
